Measurements from US20060009432A1, “Use of neurosteroids to treat neuropathic pain” (priority 2004, published 2006).

How the values were obtained:
[1] = system: chronic constriction injury (CCI) of the sciatic nerve, rats; experiment: Cold allodynia (acetone application) in chronic constriction injury model; format: in vivo, rat; details: for Average time to withdrawal (s.e.m.): CCI rats
Procedure: Unilateral sciatic nerve injury was produced under deep anesthesia with i.p injection of sodium pentobarbital (Mebumal, 60 mg/kg), as described by Bennett and Xie (Pain, 33, 87-107(1988)). The common sciatic nerve was exposed and freed for about 10 mm at mid-thigh level. Four ligatures (Ethicon, 4.0 plain gut) were tied loosely around the nerve with about 1-mm spacing creating a chronic constriction injury (CCl), and the incision was closed.
Brisk foot withdrawal in response to acetone application was measured based on the method described by Choi et al. The acetone bubble was gently brought in touch with the plantar surface around the center, and the acetone quickly spread over the central part of the plantar surface of the foot. Applications were made five times (once every 5 min) to each paw. The score for each application was recorded as follows: foot withdrawal was scored as positive (1) and lack of withdrawal as negative (O). The total score (0 to 5) was taken as index for cold sensitivity of the foot […]. This approximates pain from a non-noxious stimulus, i.e. allodynia.
Cold allodynia response was measured 15, 30, 45, 60, 90 and 120 minutes after i.p. administration of ganaxolone (at 1 mg/kg, 3 mg/kg or 10 mg/kg) as well as prior to administration of the neurosteroid and prior to infliction of the neural injury. Table 1 provides the resulting measurement of cold allodynia response in groups of six rats per dosage level. The abbreviation “s.e.m.” means standard error mean.

[2] = system: migraine; details: phase 2 clinical trial for migraine; cited from earlier work
[3] = system: SNL rats; experiment: Thermal withdrawal (Hargreaves) in spinal nerve ligation model; format: in vivo, rat
Procedure: (A) L5/L6 spinal nerve ligation (SNL) was performed as described by Kim and Chung (Pain, 50,355-363(1992)). Animals (mice or rats) were anesthetized with halothane. An incision was made lateral to the lumbar spine. The right L5 and L6 spinal nerves were isolated and tightly ligated distal to the dorsal root ganglion. The incision was closed, and animals were allowed to recover for 10 days. Sham-operated animals were prepared in an identical fashion except that the spinal nerves were not ligated.
(B) The method of Hargreaves et al. (Pain, 32, 77-88 (1988)) was used to measure the thermal withdrawal latency in SNL rats. Animals were acclimated within Plexiglas enclosures on a clear glass plate maintained at 30° C. A radiant heat source (high-intensity projector lamp) was focused onto the plantar surface of the paw. When the paw was withdrawn, a motion detector halted the stimulus and a timer. A maximal cut-off of 40 sec for rats and 30 sec for mice was used to prevent tissue damage. Differences in responses between groups were tested by using the standard ANOVA statistical test followed by post hoc testing with Student's t test with Bonferroni's correction. Significance was defined as P<0.05.
Thermal withdrawal response was measured 15, 30, 45, 60, 90 and 120 minutes after i.p. administration of ganaxolone (at 1 mg/kg, 3 mg/kg, 6 mg/kg or 10 mg/kg). Table 3 provides the resulting measurement of thermal withdrawal in groups of five rats per dosage level.

CC(=O)[C@H]1CC[C@H]2[C@@H]3CC[C@H]4C[C@](C)(O)CC[C@]4(C)[C@H]3CC[C@]12C [ganaxolone, 3α-hydroxy-3β-methyl-5α-pregnan-20-one]
Average time to withdrawal (s.e.m.) ([1]; 1 mg/kg i.p., 15 min after administration): 7.40 (1.02) | Average time to withdrawal (s.e.m.) ([1]; 1 mg/kg i.p., 30 min after administration): 6.12 (1.72) | Average time to withdrawal (s.e.m.) ([1]; 1 mg/kg i.p., 45 min after administration): 5.07 (1.14) | Average time to withdrawal (s.e.m.) ([1]; 1 mg/kg i.p., 60 min after administration): 2.59 (0.47) | Average time to withdrawal (s.e.m.) ([1]; 1 mg/kg i.p., 90 min after administration): 3.66 (0.47) | Average time to withdrawal (s.e.m.) ([1]; 1 mg/kg i.p., 120 min after administration): 3.16 (0.26) | Average time to withdrawal (s.e.m.) ([1]; 3 mg/kg i.p., 15 min after administration): 6.77 | Average time to withdrawal (s.e.m.) ([1]; 3 mg/kg i.p., 30 min after administration): 13.03 | Average time to withdrawal (s.e.m.) ([1]; 3 mg/kg i.p., 45 min after administration): 11.12 | Average time to withdrawal (s.e.m.) ([1]; 3 mg/kg i.p., 60 min after administration): 11.69 | Average time to withdrawal (s.e.m.) ([1]; 3 mg/kg i.p., 90 min after administration): 10.26 | Average time to withdrawal (s.e.m.) ([1]; 3 mg/kg i.p., 120 min after administration): 10.30 | Average time to withdrawal (s.e.m.) ([1]; 10 mg/kg i.p., 15 min after administration): 13.86 | Average time to withdrawal (s.e.m.) ([1]; 10 mg/kg i.p., 30 min after administration): 15.35 | Average time to withdrawal (s.e.m.) ([1]; 10 mg/kg i.p., 45 min after administration): 13.34 | Average time to withdrawal (s.e.m.) ([1]; 10 mg/kg i.p., 60 min after administration): 10.38 | Average time to withdrawal (s.e.m.) ([1]; 10 mg/kg i.p., 90 min after administration): 8.59 | Average time to withdrawal (s.e.m.) ([1]; 10 mg/kg i.p., 120 min after administration): 8.87 | Effect on average time to withdrawal ([1]; summary of Table 1, CCI rats): increases the average time to withdrawal | Benefit on time to pain relief [2]: failed to show benefit | % Activity ± s.e.m. (thermal withdrawal) ([3]; 1 mg/kg i.p., 15 min): 24.59 ± 14.93% | % Activity ± s.e.m. (thermal withdrawal) ([3]; 1 mg/kg i.p., 30 min): 27.99 ± 17.71% | % Activity ± s.e.m. (thermal withdrawal) ([3]; 1 mg/kg i.p., 45 min): 3.98 ± 2.63% | % Activity ± s.e.m. (thermal withdrawal) ([3]; 1 mg/kg i.p., 60 min): 12.62 ± 8.69% | % Activity ± s.e.m. (thermal withdrawal) ([3]; 1 mg/kg i.p., 90 min): 17.40 ± 8.65% | % Activity ± s.e.m. (thermal withdrawal) ([3]; 1 mg/kg i.p., 120 min): 12.13 ± 9.25% | % Activity ± s.e.m. (thermal withdrawal) ([3]; 3 mg/kg i.p., 15 min): 37.15 ± 18.52% | % Activity ± s.e.m. (thermal withdrawal) ([3]; 3 mg/kg i.p., 30 min): 48.03 ± 22.45% | % Activity ± s.e.m. (thermal withdrawal) ([3]; 3 mg/kg i.p., 45 min): 19.84 ± 12.97% | % Activity ± s.e.m. (thermal withdrawal) ([3]; 3 mg/kg i.p., 60 min): 14.25 ± 10.87% | % Activity ± s.e.m. (thermal withdrawal) ([3]; 3 mg/kg i.p., 90 min): 4.18 ± 4.18% | % Activity ± s.e.m. (thermal withdrawal) ([3]; 3 mg/kg i.p., 120 min): 16.57 ± 11.76% | % Activity ± s.e.m. (thermal withdrawal) ([3]; 6 mg/kg i.p., 15 min): 79.03 ± 10.50% | % Activity ± s.e.m. (thermal withdrawal) ([3]; 6 mg/kg i.p., 30 min): 70.78 ± 11.53% | % Activity ± s.e.m. (thermal withdrawal) ([3]; 6 mg/kg i.p., 45 min): 43.72 ± 10.03% | % Activity ± s.e.m. (thermal withdrawal) ([3]; 6 mg/kg i.p., 60 min): 60.94 ± 10.27% | % Activity ± s.e.m. (thermal withdrawal) ([3]; 6 mg/kg i.p., 90 min): 42.83 ± 10.41% | % Activity ± s.e.m. (thermal withdrawal) ([3]; 6 mg/kg i.p., 120 min): 10.88 ± 6.34% | % Activity ± s.e.m. (thermal withdrawal) ([3]; 10 mg/kg i.p., 15 min): 70.07 ± 18.30% | % Activity ± s.e.m. (thermal withdrawal) ([3]; 10 mg/kg i.p., 30 min): 46.91 ± 14.25% | % Activity ± s.e.m. (thermal withdrawal) ([3]; 10 mg/kg i.p., 45 min): 47.36 ± 12.97% | % Activity ± s.e.m. (thermal withdrawal) ([3]; 10 mg/kg i.p., 60 min): 41.45 ± 10.90% | % Activity ± s.e.m. (thermal withdrawal) ([3]; 10 mg/kg i.p., 90 min): 33.58 ± 7.53% | % Activity ± s.e.m. (thermal withdrawal) ([3]; 10 mg/kg i.p., 120 min): 23.87 ± 4.35%
